Values quoted from earlier work as cited in US9610289B2, “Combinations of AKT inhibitor compounds and erlotinib, and methods of use” (Genentech, Inc., priority 2011, dated 2017).

Target: T1, topoisomerase I (Homo sapiens, UniProt P11387)
T1 sequence (P11387 1-765): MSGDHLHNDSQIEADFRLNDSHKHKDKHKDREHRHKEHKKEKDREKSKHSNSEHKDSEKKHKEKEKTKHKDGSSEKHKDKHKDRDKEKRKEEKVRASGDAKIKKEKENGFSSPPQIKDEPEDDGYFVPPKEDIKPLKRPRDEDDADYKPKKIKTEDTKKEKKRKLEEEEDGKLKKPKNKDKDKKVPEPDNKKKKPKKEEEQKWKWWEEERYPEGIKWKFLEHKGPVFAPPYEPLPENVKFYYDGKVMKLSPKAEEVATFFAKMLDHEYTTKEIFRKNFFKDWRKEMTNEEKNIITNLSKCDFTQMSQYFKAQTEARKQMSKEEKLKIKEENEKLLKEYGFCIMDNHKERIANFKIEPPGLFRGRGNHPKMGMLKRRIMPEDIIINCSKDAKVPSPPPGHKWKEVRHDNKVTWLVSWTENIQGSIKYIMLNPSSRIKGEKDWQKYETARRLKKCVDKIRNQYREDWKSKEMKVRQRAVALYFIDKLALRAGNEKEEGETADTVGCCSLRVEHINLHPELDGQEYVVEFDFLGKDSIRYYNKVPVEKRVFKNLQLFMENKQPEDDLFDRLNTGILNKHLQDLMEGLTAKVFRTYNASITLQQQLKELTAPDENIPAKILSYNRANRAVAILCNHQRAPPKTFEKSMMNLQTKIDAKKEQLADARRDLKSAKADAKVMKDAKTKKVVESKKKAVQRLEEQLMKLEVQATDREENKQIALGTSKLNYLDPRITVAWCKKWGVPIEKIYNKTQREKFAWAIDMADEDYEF
Conditions: active metabolite versus irinotecan

CCc1c2c(nc3ccc(O)cc13)-c1cc3c(c(=O)n1C2)COC(=O)[C@]3(O)CC [SN-38, 7-ethyl-10-hydroxy-camptothecin]
more active than irinotecan itself: 200 times
